Values quoted from earlier work in patent US8529907B2, “Methods of treating ophthalmic disorders” (Nikken Sohonsha Corporation, priority 2008, dated 2013).

Legend:
RP patients = settings: 15,000 U/d

CC1=C(/C=C/C(C)=C\C=C\C(C)=C\C=O)C(C)(C)CCC1 [9-cis-retinal]
rescue of mutant opsin P23H (mutant opsin P23H): effectively rescued | duration of supported rod retinal function post-treatment (Rpe65-deficient mice; early intervention): more than 6 months | retinal ester accumulation (Rpe65-deficient mice; early intervention): significantly attenuated | rod photopigment and rod physiology (Rpe65-deficient mice; oral, within 48 h, Rpe65-deficient mice): formation of rod photopigment and dramatic improvement in rod physiology

CC1=C(/C=C/C(C)=C/C=C/C(C)=C/C=O)C(C)(C)CCC1 [11-cis-retinal]
rescue of mutant opsin P23H (mutant opsin P23H): effectively rescued

CCCCCCCCCCCCCCCC(=O)OC/C=C(C)/C=C/C=C(C)/C=C/C1=C(C)CCCC1(C)C [Vitamin A palmitate]
slowing of the progress of RP (RP patients): about 2 % per year
